Experimental data from patent publication US20210371351A1, “MIXTURES COMPRISING AT LEAST TWO DIFFERENT NITRIFICATION INHIBITORS SELECTED FROM 2-(3,4-DIMETHYL-1H-PYRAZOL-1-YL)SUCCINIC ACID (DMPSA), 3,4-DIMETHYL PYRAZOLIUM GLYCOLATE (DMPG) AND OTHER COMPOUNDS” (BASF SE, priority 2017, published 2021).

Tested on: nitrification
Assay: Example 5: soil incubation in bottles with ammonium sulfate, DMPSA, DCD or mixtures, 5 to 15° C., 0 up to 56 days; recovery NH4 (RE/RC), net recovery NH4 (NE/NC), inhibition of NO3 formation (IE/IC, Böhland; Colby)
Experimental: 100 g soil is filled into 500 ml plastic bottles (e.g. soil sampled from the field) and is moistened to 50% water holding capacity. The soil is incubated at 20° C. for two weeks to activate the microbial biomass. 1 ml test solution, containing the compositions and mixtures of the invention in the appropriate concentration, or DMSO and 5 to 10 mg nitrogen in the form of ammoniumsulfate-N is added to the soil and everything mixed well. Bottles are capped but loosely to allow air exchange. The bottles are then incubated at 5 to 15° C. for 0 up to 56 days.
For analysis, 300 ml of a 1% K2SO4-solution is added to the bottle containing the soil and shaken for 2 hrs in a horizontal shaker at 150 rpm. Then the whole solution is filtered through a Macherey-Nagel Filter MN 807′/. Ammonium and nitrate content is then analyzed in the filtrate in an autoanalyzer at 550 nm (Merck, AA11).
The Böhland equation is described in Böhland, H., et al. (1973) “Mittel zur Hemmung bzw. Regelung der Nitrifikation von Ammoniumstickstoff in Kulturböden”. DDR-Wirtschaftspatent (Economic patent of the German Democratic Republic) C 05c 169 727. Cited by: Peschke, H. (1985) “Zur Bewertung der inhibierenden Wirkung von Nitrifiziden im Boden”, Zbl. Mikrobiol. 140, pp. 583-588.

In the case of N#CN=C(N)N [DCD, dicyandiamide], the “IE inhibition of NO3 formation” value (IT5° C., DAT10, % a.i.: DMPSA 0.5, DCD 1, DMPSA + DCD 0.5 + 1 (1:2)) is reported as 10, the “IE inhibition of NO3 formation” value (IT5° C., DAT10, % a.i.: DMPSA 0.5, DCD 3, DMPSA + DCD 0.5 + 3 (1:6)) is reported as 43 and the “IE inhibition of NO3 formation” value (IT5° C., DAT20, % a.i.: DMPSA 0.5, DCD 1, DMPSA + DCD 0.5 + 1 (1:2)) is reported as −5. The “IE inhibition of NO3 formation” value (IT5° C., DAT20, % a.i.: DMPSA 0.5, DCD 3, DMPSA + DCD 0.5 + 3 (1:6)) was 32, the “IE (inhibition of NO3 formation, Böhland)” value (IT5° C., DAT28, % a.i. DMPSA 0.25, DCD 1) was 65 and the “IE (inhibition of NO3 formation, Böhland)” value (IT5° C., DAT28, % a.i. DMPSA 0.25, DCD 3) was 73. The “IE (inhibition of NO3 formation, Böhland)” value (IT5° C., DAT28, % a.i. DMPSA 0.30, DCD 0.05) was 1, the “IE (inhibition of NO3 formation, Böhland)” value (IT5° C., DAT28, % a.i. DMPSA 0.50, DCD 0.08) was 12 and the “IE inhibition of NO3 formation” value (IT5° C., DAT28, % a.i.: DMPSA 0.50, DCD 0.0125, DMPSA + DCD 0.50 + 0.0125 (40:1)) was −7. The “IE inhibition of NO3 formation” value (IT5° C., DAT28, % a.i.: DMPSA 0.50, DCD 0.0143, DMPSA + DCD 0.50 + 0.0143 (35:1)) was −2, the “IE inhibition of NO3 formation” value (IT5° C., DAT28, % a.i.: DMPSA 0.50, DCD 0.0167, DMPSA + DCD 0.50 + 0.0167 (30:1)) was 0 and the “IE inhibition of NO3 formation” value (IT5° C., DAT30, % a.i.: DMPSA 0.5, DCD 1, DMPSA + DCD 0.5 + 1 (1:2)) was 70. For the same compound, the “IE inhibition of NO3 formation” value (IT5° C., DAT30, % a.i.: DMPSA 0.5, DCD 3, DMPSA + DCD 0.5 + 3 (1:6)) was 113, the “IE (inhibition of NO3 formation, Böhland)” value (IT5° C., DAT42, % a.i. DMPSA 0.25, DCD 1) was 63 and the “IE (inhibition of NO3 formation, Böhland)” value (IT5° C., DAT42, % a.i. DMPSA 0.25, DCD 3) was 82. For the same compound, the “IE (inhibition of NO3 formation, Böhland)” value (IT5° C., DAT42, % a.i. DMPSA 0.30, DCD 0.05) was 7, the “IE (inhibition of NO3 formation, Böhland)” value (IT5° C., DAT42, % a.i. DMPSA 0.50, DCD 0.08) was 18 and the “IE (inhibition of NO3 formation, Böhland)” value (IT5° C., DAT56, % a.i. DMPSA 0.25, DCD 1) was 57. The “IE (inhibition of NO3 formation, Böhland)” value (IT5° C., DAT56, % a.i. DMPSA 0.25, DCD 3) was 74, the “IE (inhibition of NO3 formation, Böhland)” value (IT5° C., DAT56, % a.i. DMPSA 0.30, DCD 0.05) was 13 and the “IE (inhibition of NO3 formation, Böhland)” value (IT5° C., DAT56, % a.i. DMPSA 0.50, DCD 0.08) was −1. For the same compound, the “IE inhibition of NO3 formation” value (IT10° C., DAT10, % a.i.: DMPSA 0.5, DCD 1, DMPSA + DCD 0.5 + 1 (1:2)) was 18, the “IE inhibition of NO3 formation” value (IT10° C., DAT10, % a.i.: DMPSA 0.5, DCD 3, DMPSA + DCD 0.5 + 3 (1:6)) was 59 and the “IE inhibition of NO3 formation” value (IT10° C., DAT20, % a.i.: DMPSA 0.5, DCD 1, DMPSA + DCD 0.5 + 1 (1:2)) was 15. The “IE inhibition of NO3 formation” value (IT10° C., DAT20, % a.i.: DMPSA 0.5, DCD 3, DMPSA + DCD 0.5 + 3 (1:6)) was 24, the “IE (inhibition of NO3 formation, Böhland)” value (IT10° C., DAT28, % a.i. DMPSA 0.25, DCD 1) was 47 and the “IE (inhibition of NO3 formation, Böhland)” value (IT10° C., DAT28, % a.i. DMPSA 0.25, DCD 3) was 64. The “IE (inhibition of NO3 formation, Böhland)” value (IT10° C., DAT28, % a.i. DMPSA 0.30, DCD 0.05) was 4, the “IE (inhibition of NO3 formation, Böhland)” value (IT10° C., DAT28, % a.i. DMPSA 0.50, DCD 0.08) was 2 and the “IE inhibition of NO3 formation” value (IT10° C., DAT28, % a.i.: DMPSA 0.50, DCD 0.0125, DMPSA + DCD 0.50 + 0.0125 (40:1)) was 1. The “IE inhibition of NO3 formation” value (IT10° C., DAT28, % a.i.: DMPSA 0.50, DCD 0.0143, DMPSA + DCD 0.50 + 0.0143 (35:1)) was −3, the “IE inhibition of NO3 formation” value (IT10° C., DAT28, % a.i.: DMPSA 0.50, DCD 0.0167, DMPSA + DCD 0.50 + 0.0167 (30:1)) was −1 and the “IE inhibition of NO3 formation” value (IT10° C., DAT30, % a.i.: DMPSA 0.5, DCD 1, DMPSA + DCD 0.5 + 1 (1:2)) was 47. For the same compound, the “IE inhibition of NO3 formation” value (IT10° C., DAT30, % a.i.: DMPSA 0.5, DCD 3, DMPSA + DCD 0.5 + 3 (1:6)) was 55, the “IE (inhibition of NO3 formation, Böhland)” value (IT10° C., DAT42, % a.i. DMPSA 0.25, DCD 1) was 51 and the “IE (inhibition of NO3 formation, Böhland)” value (IT10° C., DAT42, % a.i. DMPSA 0.25, DCD 3) was 64. For the same compound, the “IE (inhibition of NO3 formation, Böhland)” value (IT10° C., DAT42, % a.i. DMPSA 0.30, DCD 0.05) was −1, the “IE (inhibition of NO3 formation, Böhland)” value (IT10° C., DAT42, % a.i. DMPSA 0.50, DCD 0.08) was −1 and the “IE (inhibition of NO3 formation, Böhland)” value (IT10° C., DAT56, % a.i. DMPSA 0.25, DCD 1) was 19. For the same compound, the “IE (inhibition of NO3 formation, Böhland)” value (IT10° C., DAT56, % a.i. DMPSA 0.25, DCD 3) was 29, the “IE (inhibition of NO3 formation, Böhland)” value (IT10° C., DAT56, % a.i. DMPSA 0.30, DCD 0.05) was −3 and the “IE (inhibition of NO3 formation, Böhland)” value (IT10° C., DAT56, % a.i. DMPSA 0.50, DCD 0.08) was 0. For the same compound, the “IE inhibition of NO3 formation” value (IT15° C., DAT10, % a.i.: DMPSA 0.5, DCD 1, DMPSA + DCD 0.5 + 1 (1:2)) was 34, the “IE inhibition of NO3 formation” value (IT15° C., DAT10, % a.i.: DMPSA 0.5, DCD 3, DMPSA + DCD 0.5 + 3 (1:6)) was 55 and the “IE inhibition of NO3 formation” value (IT15° C., DAT20, % a.i.: DMPSA 0.5, DCD 1, DMPSA + DCD 0.5 + 1 (1:2)) was 47. For the same compound, the “IE inhibition of NO3 formation” value (IT15° C., DAT20, % a.i.: DMPSA 0.5, DCD 3, DMPSA + DCD 0.5 + 3 (1:6)) was 64, the “IE (inhibition of NO3 formation, Böhland)” value (IT15° C., DAT28, % a.i. DMPSA 0.25, DCD 1) was 27 and the “IE (inhibition of NO3 formation, Böhland)” value (IT15° C., DAT28, % a.i. DMPSA 0.25, DCD 3) was 46. For the same compound, the “IE inhibition of NO3 formation” value (IT15° C., DAT28, % a.i.: DMPSA 0.30, DCD 0.05, DMPSA + DCD 0.30 + 0.05 (6:1)) was 5, the “IE inhibition of NO3 formation” value (IT15° C., DAT28, % a.i.: DMPSA 0.50, DCD 0.0125, DMPSA + DCD 0.50 + 0.0125 (40:1)) was 2 and the “IE inhibition of NO3 formation” value (IT15° C., DAT28, % a.i.: DMPSA 0.50, DCD 0.0143, DMPSA + DCD 0.50 + 0.0143 (35:1)) was 1. The “IE inhibition of NO3 formation” value (IT15° C., DAT28, % a.i.: DMPSA 0.50, DCD 0.0167, DMPSA + DCD 0.50 + 0.0167 (30:1)) was 1, the “IE inhibition of NO3 formation” value (IT15° C., DAT28, % a.i.: DMPSA 0.50, DCD 0.08, DMPSA + DCD 0.50 + 0.08 (6.25:1)) was 2 and the “IE inhibition of NO3 formation” value (IT15° C., DAT30, % a.i.: DMPSA 0.5, DCD 1, DMPSA + DCD 0.5 + 1 (1:2)) was 42. For the same compound, the “IE inhibition of NO3 formation” value (IT15° C., DAT30, % a.i.: DMPSA 0.5, DCD 3, DMPSA + DCD 0.5 + 3 (1:6)) was 59, the “IE (inhibition of NO3 formation, Böhland)” value (IT15° C., DAT42, % a.i. DMPSA 0.25, DCD 1) was 12 and the “IE (inhibition of NO3 formation, Böhland)” value (IT15° C., DAT42, % a.i. DMPSA 0.25, DCD 3) was 21. The “IE inhibition of NO3 formation” value (IT15° C., DAT42, % a.i.: DMPSA 0.30, DCD 0.05, DMPSA + DCD 0.30 + 0.05 (6:1)) was 2, the “IE inhibition of NO3 formation” value (IT15° C., DAT42, % a.i.: DMPSA 0.50, DCD 0.08, DMPSA + DCD 0.50 + 0.08 (6.25:1)) was 3 and the “IE (inhibition of NO3 formation, Böhland)” value (IT15° C., DAT56, % a.i. DMPSA 0.25, DCD 1) was 1. For the same compound, the “IE (inhibition of NO3 formation, Böhland)” value (IT15° C., DAT56, % a.i. DMPSA 0.25, DCD 3) was 3, the “IE inhibition of NO3 formation” value (IT15° C., DAT56, % a.i.: DMPSA 0.30, DCD 0.05, DMPSA + DCD 0.30 + 0.05 (6:1)) was 16 and the “IE inhibition of NO3 formation” value (IT15° C., DAT56, % a.i.: DMPSA 0.50, DCD 0.08, DMPSA + DCD 0.50 + 0.08 (6.25:1)) was 13.
